This is an account of results in PMC12339328, “Therapeutic effect and mechanism of gigantol on hyperuricemia” (Frontiers in Endocrinology, 2025).

Where “and” joins values, the source holds several entries; their conditions need not be identical. Equal values may be shown once. Entries after “also recorded” stand apart in the source; their conditions may differ. Read-outs that look alike come from different tables or passages of the source.

The subject of experiment [1] is XOD. Conditions: HUA cell model; gigantol 25, 50, 100 μmol/L, dose-dependent; vs model; p < 0.05, p < 0.001, p < 0.001.
The test system of another experiment is OAT3. Put plainly: OAT3 protein expression in HK-2 cells (Western blot). Conditions: for OAT3 / β (reference protein) ratio / OAT3 protein expression, band value: HK-2, replicates 1-3. On the technique in general: Immunoblotting shows a protein as a band on a membrane.
Experiment [2] has as its target T1, XOD (Mus musculus, UniProt Q00519).
T1 construct: XOD activity in the supernatant of the liver tissues was measured; from tissue; host or cells: liver of male KM mice (hyperuricemia model, potassium oxonate)
The class given is in vivo. The following applies: HUA mice, vs model group.

Another experiment concerns TNF-α. Put plainly: TNF-α level in HK-2 HUA cell model (ELISA). It counts as cell-based, human. The following applies: adenosine and XOD induction; gigantol 25, 50, 100 μmol/L. The method, then: HK-2 cells were treated as described above. The supernatant of the medium was collected, and the levels of proinflammatory cytokines (TNF-α, IL-6, and IL-1β) and the NLRP3 inflammasome component in the supernatant were detected using commercially available ELISA kits according to the manufacturers’ protocols.
In general terms: ELISA stands for enzyme-linked immunosorbent assay.

In another experiment the test system is Caspase-1. Description: Caspase-1 protein expression in HK-2 cells (Western blot). Conditions: for CASPASE / β (reference protein) ratio / CASPASE protein expression, band value: HK-2, replicates 1-3.
The next experiment concerns NLRP3. Description: NLRP3 content in serum and kidney of HUA mice (ELISA). It counts as in vivo. Conditions: gigantol low, medium, high dose intragastric, vs model group. The method, then: Blood obtained from mice in each group was centrifuged at 3,000 r/min for 15 min in a low-temperature high-speed centrifuge. Then, the serum was separated, and the levels of UA, CRE, and BUN in the serum were measured by the kits. The levels of TNF-α, IL-1β, IL-6, and NLRP3 in serum were detected by ELISA kits. Liver and kidney tissues were homogenized by adding ice-cold saline, and homogenates were centrifuged at 12,000 r/min for 10 min. XOD activity in the supernatant of the liver tissues was measured, and the levels of TNF-α, IL-1β, IL-6, and NLRP3 in the supernatant of the kidney tissues were measures by ELISA kits.

Another experiment concerns GLUT9. Put plainly: GLUT9 protein expression in kidney of HUA mice (Western blot). The following applies: gigantol, dose-dependent, vs model group. The class given is in vivo.
Experiment [3] relates to XOD. The following applies: HUA mice; each dose of gigantol (5, 10, 20 mg/kg); vs model group; p < 0.01, p < 0.01, p < 0.001.

T1 sequence (Q00519 whole entry): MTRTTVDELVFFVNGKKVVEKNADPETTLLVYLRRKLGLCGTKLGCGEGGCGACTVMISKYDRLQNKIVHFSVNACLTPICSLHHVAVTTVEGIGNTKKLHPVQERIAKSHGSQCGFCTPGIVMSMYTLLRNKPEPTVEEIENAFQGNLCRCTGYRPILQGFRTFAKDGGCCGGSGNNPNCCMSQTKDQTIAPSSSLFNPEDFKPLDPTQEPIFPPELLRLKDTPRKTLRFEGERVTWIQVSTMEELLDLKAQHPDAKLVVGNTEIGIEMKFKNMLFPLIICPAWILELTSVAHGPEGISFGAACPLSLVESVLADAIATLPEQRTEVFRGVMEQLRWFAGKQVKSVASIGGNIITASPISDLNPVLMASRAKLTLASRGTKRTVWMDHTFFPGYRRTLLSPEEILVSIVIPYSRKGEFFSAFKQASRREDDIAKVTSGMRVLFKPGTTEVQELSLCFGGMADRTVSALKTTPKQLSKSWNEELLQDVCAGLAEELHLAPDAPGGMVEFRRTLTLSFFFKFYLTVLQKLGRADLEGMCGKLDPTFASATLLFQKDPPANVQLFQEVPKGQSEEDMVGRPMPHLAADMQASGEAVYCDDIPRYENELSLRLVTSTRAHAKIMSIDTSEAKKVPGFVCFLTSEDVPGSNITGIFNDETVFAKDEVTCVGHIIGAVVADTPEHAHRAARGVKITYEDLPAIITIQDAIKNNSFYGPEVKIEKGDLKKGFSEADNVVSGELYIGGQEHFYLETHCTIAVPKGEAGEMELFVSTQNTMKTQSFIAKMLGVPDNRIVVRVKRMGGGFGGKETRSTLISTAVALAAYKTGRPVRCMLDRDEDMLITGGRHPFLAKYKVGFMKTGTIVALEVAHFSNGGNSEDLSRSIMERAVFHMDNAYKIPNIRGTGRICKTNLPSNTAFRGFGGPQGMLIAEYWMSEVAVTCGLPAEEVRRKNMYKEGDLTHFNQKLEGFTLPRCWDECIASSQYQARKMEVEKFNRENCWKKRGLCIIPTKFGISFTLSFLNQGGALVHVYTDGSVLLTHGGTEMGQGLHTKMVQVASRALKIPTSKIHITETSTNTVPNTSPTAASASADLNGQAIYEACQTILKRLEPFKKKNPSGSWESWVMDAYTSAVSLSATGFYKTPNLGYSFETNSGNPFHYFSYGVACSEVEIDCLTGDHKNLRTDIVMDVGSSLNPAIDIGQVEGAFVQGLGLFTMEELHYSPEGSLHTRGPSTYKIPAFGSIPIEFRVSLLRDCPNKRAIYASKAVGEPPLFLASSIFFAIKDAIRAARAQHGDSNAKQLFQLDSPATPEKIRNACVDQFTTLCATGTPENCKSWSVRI

For the substance “5-[2-(3-hydroxy-5-methoxyphenyl) ethyl]-2-methoxyphenol [gigantol]”, in the experiment with XOD [1], the “XOD activity in AML12 cells” value is listed as “downregulated”. Further, the “OAT3 / β (reference protein) ratio” value in the experiment on OAT3 (中 = gigantol 50 µmol/L) was 1.0464 and 0.924 and 0.8748; in the experiment with OAT3 (低 = gigantol 25 µmol/L), 0.8292 and 0.8811 and 0.9428; in the experiment with OAT3 (高 = gigantol 100 µmol/L), 0.9571 and 0.9652 and 1.021. The “OAT3 protein expression, band value” in the experiment on OAT3 (中 = gigantol 50 µmol/L) was 181.929 and 171.604 and 166.063; in the experiment with OAT3 (低 = gigantol 25 µmol/L) it was 137.293 and 165.504 and 169.481; in the experiment on OAT3 (高 = gigantol 100 µmol/L) it was 178.19 and 188.909 and 198.88. The “OAT3 protein level in HK-2 cells” value with OAT3 (HUA cell model, 50 and 100 µmol/L, vs model group) is “significantly increased”. Further, the “OAT3 protein expression in HK-2 cells” value in the experiment with OAT3 (HUA cell model, gigantol 25, 50, 100 µmol/L, dose-dependent) is “increase”. For the same substance, the “XOD activity in mice liver” value is on record as “inhibited” at XOD [2] (gigantol high dose (20 mg/kg), p < 0.001); “no significant difference” at XOD [2] (gigantol low and middle doses (5, 10 mg/kg), p > 0.05). In the experiment on TNF-α, the “TNF-α level in HK-2 cells” value was “tended to decrease dose-dependently”. The “CASPASE / β (reference protein) ratio” value with Caspase-1 (中 = gigantol 50 µmol/L) was 0.976 and 0.8978 and 0.9502; in the experiment on Caspase-1 (低 = gigantol 25 µmol/L), 0.8128 and 1.007 and 1.064; in the experiment on Caspase-1 (高 = gigantol 100 µmol/L), 0.7864 and 0.8188 and 0.8437. Also, the “CASPASE protein expression, band value” was 169.696 and 166.728 and 180.371 in the experiment on Caspase-1 (中 = gigantol 50 µmol/L); 134.57 and 189.238 and 191.281 with Caspase-1 (低 = gigantol 25 µmol/L); 146.411 and 160.261 and 164.281 with Caspase-1 (高 = gigantol 100 µmol/L). For the same substance, the “Caspase-1 protein level in HK-2 cells” value in the experiment with Caspase-1 (HUA cell model, gigantol 25, 50, 100 µmol/L, vs model group) is “significantly reduced; also recorded: decreased significantly”. Besides, the “NLRP3 level in kidney” value in the experiment on NLRP3 was “decreased”. In addition, in the experiment on NLRP3, the “NLRP3 level in serum” value is “decreased”. Moreover, the “GLUT9 protein expression in kidney” value in the experiment with GLUT9 is recorded as “significantly reduced”. Further, the “XOD protein expression in liver” value with XOD [3] is reported as “significantly decreased”.
